Measured values from PubChem BioAssay AID1963852 (Molecular Pharmacology Branch, DTP, NCI, 2024).

Tested on: 282377-053-R-J1-PDC complex spheroid viability
Test: Anticancer human tumor 282377-053-R-J1-PDC patient-derived colon adenocarcinoma cell line growth inhibition [POLQ]
Settings: for IC50: curve of first compound; for viability, T/C: stronger effect = lower value
Outline: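 Three-cell-type spheroids modelling solid tumor plus stroma served as the readout system; POL inhibitors were tested individually and in combination, concentration ranges set by clinical Cmax where known.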

[1] = second compound 0.0316 µM, first compound 0.0316 µM
[2] = second compound 0.0316 µM, first compound 0.1 µM
[3] = second compound 0.0316 µM, first compound 0.316 µM
[4] = second compound 0.0316 µM, first compound 1 µM
[5] = second compound 0.0316 µM, first compound 3.16 µM
[6] = second compound 0.0316 µM, first compound 10 µM
[7] = second compound 0.1 µM, first compound 0.0316 µM
[8] = second compound 0.1 µM, first compound 0.1 µM
[9] = second compound 0.1 µM, first compound 0.316 µM
[10] = second compound 0.1 µM, first compound 1 µM
[11] = second compound 0.1 µM, first compound 3.16 µM
[12] = second compound 0.1 µM, first compound 10 µM
[13] = second compound 0.316 µM, first compound 0.0316 µM
[14] = second compound 0.316 µM, first compound 0.1 µM
[15] = second compound 0.316 µM, first compound 0.316 µM
[16] = second compound 0.316 µM, first compound 1 µM
[17] = second compound 0.316 µM, first compound 3.16 µM
[18] = second compound 0.316 µM, first compound 10 µM
[19] = second compound 1 µM, first compound 0.0316 µM
[20] = second compound 1 µM, first compound 0.1 µM
[21] = second compound 1 µM, first compound 0.316 µM
[22] = second compound 1 µM, first compound 1 µM
[23] = second compound 1 µM, first compound 3.16 µM
[24] = second compound 1 µM, first compound 10 µM
[25] = second compound 3.16 µM, first compound 0.0316 µM
[26] = second compound 3.16 µM, first compound 0.1 µM
[27] = second compound 3.16 µM, first compound 0.316 µM
[28] = second compound 3.16 µM, first compound 1 µM
[29] = second compound 3.16 µM, first compound 3.16 µM
[30] = second compound 3.16 µM, first compound 10 µM
[31] = second compound 10 µM, first compound 0.0316 µM
[32] = second compound 10 µM, first compound 0.1 µM
[33] = second compound 10 µM, first compound 0.316 µM
[34] = second compound 10 µM, first compound 1 µM
[35] = second compound 10 µM, first compound 3.16 µM
[36] = second compound 10 µM, first compound 10 µM
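Also: spheroids exposed to compounds for seven days.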
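For viability, T/C in this document: 100% = DMSO vehicle control viability.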

In the case of `C=CC(=O)N1CCN(c2nc(=O)n(-c3c(C)ccnc3C(C)C)c3nc(-c4c(O)cccc4F)c(F)cc23)C(C)C1` (centres undefined) + Cc1cccc(N(C)C(=O)C2C(O)CCN2c2nc(C)cc(C(F)(F)F)c2C#N)c1, the IC50 (second compound 0.0316 µM) is reported as > 10 µM, the IC50 (second compound 0.1 µM) is reported as > 10 µM and the IC50 (second compound 0.316 µM) is reported as > 10 µM. The IC50 (second compound 1 µM) was > 10 µM, the IC50 (second compound 3.16 µM) was > 10 µM and the IC50 (second compound 10 µM) was > 10 µM. The viability, T/C [1] was 94.8%, the viability, T/C [2] was 84.6% and the viability, T/C [3] was 119%. For the same molecule, the viability, T/C [4] was 89.3%, the viability, T/C [5] was 97.3% and the viability, T/C [6] was 80.5%. The viability, T/C [7] was 102%, the viability, T/C [8] was 108% and the viability, T/C [9] was 93.4%. For the same molecule, the viability, T/C [10] was 83.5%, the viability, T/C [11] was 90.4% and the viability, T/C [12] was 88.7%. It also gave a viability, T/C [13] of 91.2%, a viability, T/C [14] of 106% and a viability, T/C [15] of 106%. The viability, T/C [16] was 89.4%, the viability, T/C [17] was 74.1% and the viability, T/C [18] was 79.3%. It also gave a viability, T/C [19] of 79.2%, a viability, T/C [20] of 92.7% and a viability, T/C [21] of 89%. It also gave a viability, T/C [22] of 80.8%, a viability, T/C [23] of 85.7% and a viability, T/C [24] of 76.6%. For the same molecule, the viability, T/C [25] was 88.5%, the viability, T/C [26] was 99% and the viability, T/C [27] was 71.9%. The viability, T/C [28] was 88.5%, the viability, T/C [29] was 84% and the viability, T/C [30] was 89.4%. For the same molecule, the viability, T/C [31] was 76.7%, the viability, T/C [32] was 80.8% and the viability, T/C [33] was 89.7%. For the same molecule, the viability, T/C [34] was 86.8%, the viability, T/C [35] was 85.8% and the viability, T/C [36] was 70.7%.

In the case of `CC(C)n1c(=O)n(C)c2cnc3cc(F)c(-c4ccc(OCCCN5CCCCC5)nc4)cc3c21` + Cc1cccc(N(C)C(=O)C2C(O)CCN2c2nc(C)cc(C(F)(F)F)c2C#N)c1, the IC50 (second compound 0.0316 µM) is reported as > 10 µM, the IC50 (second compound 0.1 µM) is reported as > 10 µM and the IC50 (second compound 0.316 µM) is reported as > 10 µM. The IC50 (second compound 1 µM) was > 10 µM, the IC50 (second compound 3.16 µM) was > 10 µM and the IC50 (second compound 10 µM) was > 10 µM. For the same molecule, the viability, T/C [1] was 97.8%, the viability, T/C [2] was 129% and the viability, T/C [3] was 99%. For the same molecule, the viability, T/C [4] was 114%, the viability, T/C [5] was 109% and the viability, T/C [6] was 88.3%. It also gave a viability, T/C [7] of 95.2%, a viability, T/C [8] of 123% and a viability, T/C [9] of 98.2%. It also gave a viability, T/C [10] of 97.5%, a viability, T/C [11] of 129% and a viability, T/C [12] of 84.8%. It also gave a viability, T/C [13] of 99.6%, a viability, T/C [14] of 92.3% and a viability, T/C [15] of 96%. The viability, T/C [16] was 89.5%, the viability, T/C [17] was 99.1% and the viability, T/C [18] was 73.8%. The viability, T/C [19] was 105%, the viability, T/C [20] was 99.8% and the viability, T/C [21] was 97.7%. For the same molecule, the viability, T/C [22] was 105%, the viability, T/C [23] was 106% and the viability, T/C [24] was 93.2%. For the same molecule, the viability, T/C [25] was 81.5%, the viability, T/C [26] was 102% and the viability, T/C [27] was 96.4%. For the same molecule, the viability, T/C [28] was 98.9%, the viability, T/C [29] was 97.1% and the viability, T/C [30] was 92.7%. The viability, T/C [31] was 93.2%, the viability, T/C [32] was 87.3% and the viability, T/C [33] was 110%. The viability, T/C [34] was 81.9%, the viability, T/C [35] was 120% and the viability, T/C [36] was 82.1%.
